Experimental data as given in article PMC3038857, “Using Nuclear Receptor Activity to Stratify Hepatocarcinogens” (PLoS ONE, 2011).

Assays:
FXR (NR1H4) [1] = biological target: T1, FXR (NR1H4) (Homo sapiens, UniProt Q96RI1); experiment: NVS_NR_hFXR: Human FXR CDCA (cell-free HTS); assay type: binding; conditions: scale not given, looks like -log10 of molar active concentration, 0 = no activity
T1 sequence (Q96RI1 1-486): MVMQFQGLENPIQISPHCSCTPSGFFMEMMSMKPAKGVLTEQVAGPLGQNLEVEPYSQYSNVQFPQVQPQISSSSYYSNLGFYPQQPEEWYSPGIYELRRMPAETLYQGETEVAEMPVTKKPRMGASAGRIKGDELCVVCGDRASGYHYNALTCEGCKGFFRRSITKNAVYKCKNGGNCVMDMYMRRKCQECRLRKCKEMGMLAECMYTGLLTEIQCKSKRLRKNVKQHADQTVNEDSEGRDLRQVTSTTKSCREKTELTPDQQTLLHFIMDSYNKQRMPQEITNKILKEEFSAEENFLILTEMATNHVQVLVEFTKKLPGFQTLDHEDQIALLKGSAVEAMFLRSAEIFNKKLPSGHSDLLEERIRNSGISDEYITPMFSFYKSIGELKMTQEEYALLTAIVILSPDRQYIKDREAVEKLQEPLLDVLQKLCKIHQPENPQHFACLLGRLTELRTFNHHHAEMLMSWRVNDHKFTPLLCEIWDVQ
Source text: (§1) These are a collection of biochemical assays measuring binding constants and enzyme inhibition values. Chemicals were initially screened at a single concentration in duplicate wells at a concentration of 10 [drawing 63] M for cytochrome P-450 assays and 25 [drawing 64] M for all others. […] These assays were run by Caliper Life Sciences (Hanover, MD) under contract to EPA. Short assay descriptions are available at: http://www.caliperls.com/products/contract-research/in-vitro/.
(§2) Cell-free HTS Assays: A collection of biochemical assays measuring binding constants and enzyme inhibition values. […] These assays were run by Caliper Life Sciences (Hanover, MD) under contract to EPA. Short assay descriptions are available at http://www.caliperls.com/products/contract-research/in-vitro/. Values for all endpoints were imported into GeneData Screener (Basel, Switzerland) and normalised to solvent controls from the same plate as the tested compounds and expressed as percent of neutral control. Concentration-response curves were fit in GeneData Screener (Basel, Switzerland) Condeseo module using the Hill equation and AC50 values were determined. […] Detailed description of the methods, data and analysis methods for this dataset are described in a separate publication.

Mouse Liver [2] = conditions: mouse chronic study, liver, any lesion; coded 6 / Inf / 0, code not explained here; ref ToxRefDB; cited from earlier work
Mouse Liver [3] = conditions: mouse chronic study, liver, preneoplastic lesion; coded 6 / Inf / 0, code not explained here; ref ToxRefDB; cited from earlier work
FXR (NR1H4) [4] = biological target: T1, FXR (NR1H4); experiment: ATG_FXR_TRANS: Factorial reporter gene assay (HepG2); assay type: cell-based; parameters: expressed in transfected cells; host or cells: HepG2; scale not given here; conditions: scale not given, looks like -log10 of molar active concentration, 0 = no activity
Method: (§3) A multiple reporter transcription unit (MRTU) library consisting of 48 transcription factor binding sites was transfected into the HepG2 human liver hepatoma cell line. In addition to the cis-acting reporter genes (CIS), a modification of the approach was used to generate a trans-system (TRANS) with a mammalian one-hybrid assay consisting of an additional 25 MRTU library reporting the activity of nuclear receptor super-family members. […] These assays were performed by Attagene Inc. (Morrisville NC) under contract to EPA.
(§4) In addition to the cis-acting reporter genes (CIS), a modification of the approach was used to generate a trans-system (TRANS) with a mammalian one-hybrid assay consisting of an additional 25 MRTU library reporting the activity of nuclear receptor super-family members. […] Chemicals were then tested in the CIS and TRANS assays at seven concentrations starting at the MTC and followed by three-fold serial dilutions. These assays were performed by Attagene Inc. (Morrisville NC) under contract to EPA. Detailed description of the methods, data and analysis methods for this dataset will be presented in a separate publication.

CAR (NR1I3) [5] = biological target: T2, CAR (NR1I3) (Homo sapiens, UniProt Q14994); experiment: NVS_NR_hCAR: Human CAR CITCO (cell-free HTS); assay type: binding; conditions: scale not given, looks like -log10 of molar active concentration, 0 = no activity
T2 sequence (Q14994 1-352): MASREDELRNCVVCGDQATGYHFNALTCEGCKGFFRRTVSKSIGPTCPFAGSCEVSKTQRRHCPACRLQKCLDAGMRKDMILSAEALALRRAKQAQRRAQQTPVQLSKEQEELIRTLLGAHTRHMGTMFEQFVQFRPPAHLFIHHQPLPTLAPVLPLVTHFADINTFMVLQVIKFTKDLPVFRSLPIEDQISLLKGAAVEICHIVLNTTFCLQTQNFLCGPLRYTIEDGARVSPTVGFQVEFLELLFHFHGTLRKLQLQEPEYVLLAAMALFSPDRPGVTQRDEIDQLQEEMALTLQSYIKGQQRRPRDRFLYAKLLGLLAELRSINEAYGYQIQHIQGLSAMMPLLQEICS
Source text: as §1, §2

CAR (NR1I3) [6] = biological target: T2, CAR (NR1I3); experiment: ATG_CAR_TRANS: Factorial reporter gene assay (HepG2); assay type: cell-based; parameters: endogenous in cells; host or cells: HepG2; conditions: HepG2; scale not given, looks like -log10 of molar active concentration; 0 = no activity
Method: as §3, §4

CAR (NR1I3) [7] = biological target: T2, CAR (NR1I3); experiment: NVS_NR_hCAR_Agonist: Human CAR CITCO Agonist (cell-free HTS); assay type: biochemical; conditions: scale not given, looks like -log10 of molar active concentration, 0 = no activity
Source text: as §1, §2

[8] = biological target: T3, ESRRA (estrogen-related receptor alpha) (Homo sapiens, UniProt P11474); experiment: ATG_ERRa_TRANS: Factorial reporter gene assay (HepG2); assay type: cell-based; conditions: scale not given, looks like -log10 of molar active concentration, 0 = no activity
T3 construct: expressed in transfected cells; host or cells: HepG2
T3 sequence (P11474 1-423): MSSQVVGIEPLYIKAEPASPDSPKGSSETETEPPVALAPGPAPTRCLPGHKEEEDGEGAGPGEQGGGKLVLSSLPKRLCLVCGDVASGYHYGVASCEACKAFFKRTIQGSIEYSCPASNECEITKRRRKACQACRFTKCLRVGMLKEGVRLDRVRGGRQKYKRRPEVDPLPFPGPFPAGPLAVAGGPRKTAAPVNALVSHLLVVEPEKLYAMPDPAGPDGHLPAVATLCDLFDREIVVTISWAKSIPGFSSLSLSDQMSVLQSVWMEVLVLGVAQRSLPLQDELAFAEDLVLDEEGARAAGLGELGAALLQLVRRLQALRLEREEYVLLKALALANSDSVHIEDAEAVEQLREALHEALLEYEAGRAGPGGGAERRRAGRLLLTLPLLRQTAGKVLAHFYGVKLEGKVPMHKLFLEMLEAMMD
Method: as §3, §4

| SMILES | NVS_NR_hFXR (FXR (NR1H4) [1]) | CHR_Mouse_Liver_1_AnyLesion (Mouse Liver [2]) | CHR_Mouse_Liver_2_PreneoplasticLesion (Mouse Liver [3]) | ATG_FXR_TRANS (FXR (NR1H4) [4]) | NVS_NR_hCAR (CAR (NR1I3) [5]) | ATG_CAR_TRANS (CAR (NR1I3) [6]) | NVS_NR_hCAR_Agonist (CAR (NR1I3) [7]) | ATG_ERRa_TRANS [8] |
| --- | --- | --- | --- | --- | --- | --- | --- | --- |
| COc1ccc(-c2ccccc2)cc1NNC(=O)OC(C)C [r38] | 0 | 6 | 6 | 0 | 0 | 0 | 0 | 0 |
| N#Cc1cc(Br)c(O)c(Br)c1 [r44] | 0 | 6 | 6 | 0 | 0 | 0 | 0 | 0 |
